According to patent publication US20100168228A1, “NOVEL CHEMOTHERAPEUTIC AGENTS AGAINST INFLAMMATION AND CANCER” (RELIANCE LIFE SCIENCES PVT. LTD., priority 2006, published 2010):

How the values were obtained:
Jurkat cells [1] = assay: Cell cycle analysis (PI, flow cytometry), Jurkat; type: cell-based, human; details: for cell cycle distribution with time: 100 nM and 500 nM
Procedure: (§1) Cells (log phase culture) were treated with vehicles alone (similar volumes of DMSO) or with the compound (various concentrations) to be tested for 24 h. Untreated cells were also included in this experiment for comparison. After treatments, the cells were harvested and washed with cold EDTA/PBS (5 mmol/L). Cells were then resuspended in cold EDTA/PBS (300 μl) and 100% chilled ethanol (700 μl), vortexed, and incubated at room temperature for 1 h. Samples were centrifuged at 200×g for 5 minutes and the supernatant was removed. A solution containing propidium iodide (100 μg/ml) and RNase A (1 mg/ml) was added to the samples and incubated for 1 h at room temperature. Samples were then transferred to 12×75 mm polystyrene tubes and analyzed on flow cytometer. Flow cytometry analyses were done on FACSCalibur (Becton Dickinson, San Jose, Calif.) and data were analyzed using CellQuest analysis software.
as §1, with “Cells (log phase culture) were treated with vehicles alone (similar volumes of DMSO) or with the compound (various concentrations) to be tested for 24 h.” left out, “PBS.” for “EDTA/PBS (5 mmol/L).”, “PBS” for “EDTA/PBS”

TNFα = assay: Bioassay of TNFα production by LPS activated RAW 264.7 macrophages using L929 cell line; type: cell-based; details: Mus musculus; L929 + ActD + supernatant from LPS + compound (10 μM) treated RAW 264.7 macrophage; crystal violet; mean ± S.D. of triplicate; read-out: PERCENTAGE CELL SURVIVAL ± S.D.
Procedure: Measurement of TNFα in culture medium or supernatant is performed using immunoassay and bioassay. Bioassay was used for the measurement of bioactive TNFα production in the culture medium.
TNFα secretion into the medium by LPS activated macrophage was assayed using L929 tumorigenic murine cells (ATCC) specifically sensitive to TNFα. L929 cell cytotoxicity assay was performed by a modified method (Sano et al., The Journal of Immunology, 1999, 163: 387-395 The Journal of Immunology, 1999, 163: 387-395) based on that described elsewhere (Flick D A, Gifford G E. J Immunol Methods. 1984 Mar. 30; 68(1-2): 167-175). Briefly, the L929 cells (log phase cells) were seeded into a flat bottom 96 well plates (6×10^4/well) in 100 μl volume of RPMI 1640 containing 2% FCS and incubated overnight at 37° C. in a 5% CO2 incubator. A working dilution of the culture supernatant collected from LPS (200 ng/ml) activated macrophage in a volume of 100 μl per well was first tested to obtain 70-75% cytotoxicity equivalent to […] of recombinant TNFα standard to the TNFα sensitive L929 cell line. After incubation of the L929 cells appropriate fixed dilution of the culture supernatant collected from the compound treated (10 μM) wells, containing the LPS stimulated macrophages in a volume of 100 μl with 2 μg/ml Actinomycin D (Act D) was taken and added to the L929 cells and the cells were incubated at room temperature for 15 min followed by 18 h incubation at 37° C. overnight with 5% CO2. On the next day the medium was removed and the cells were stained with 0.2% (w/v) crystal violet for 10 minutes. The wells were gently rinsed with water, and 33% acetic acid (100 μl/well) was added to extract the retained crystal violet. The absorbance at 570 nm was finally measured.
Tumor necrosis factor-α can cause direct cytotoxicity to the lung fibroblast cell line (L929). Bioassay of TNF α is designated on the basis of this cytotoxicity of TNF α, which can be used for the identification of murine TNF α activity in tissue culture supernatants. Culture supernatant collected from the synthetic molecules treated well containing LPS stimulated macrophage modulated the extent of cytotoxicity to the L929 cells (see Table 1).

RAW 264.7 cells = assay: Nitrite quantification (Griess) in LPS stimulated macrophages; type: cell-based, mouse; details: for CONCENTRATION OF NITRITE μM ± SD: RAW 264.7 + LPS (200 ng/ml) + 10 μM compound, 24 h, LPS + DMSO control 14.560, basal 0.782
Procedure: NO2^− accumulation was used as an indicator of Nitric Oxide (NO) production in the medium as described previously (Green et al., 1982 Anal Biochem 126, 131-138). […] The isolated supernatants were mixed with an equal volume of Griess reagent (1% sulfanilamide, 0.1% naphthylenediamine dihydrochloride, and 2% phosphoric acid) and incubated at room temperature for 15 min. NaNO2 was used to generate a standard curve, and nitrite production was determined by measuring the optical density at 540 nm.
To estimate the anti-inflammatory effects of all the synthetic molecules listed in this study, we measured the accumulation of nitrite, the stable metabolite of NO, in the culture media using Griess reagent.
To investigate the effect of CAMVE on NO production, we measured the accumulation of nitrite, the stable metabolite of NO, in the culture media using Griess reagent. To investigate the effect of CAMVE on NO production, Raw 264.7 cells, pretreated with indicated concentrations of CAMVE for 1 h were incubated with LPS (250 ng/ml) for 24 h.

Jurkat cells [2] = assay: Cytotoxicity assay (MTT), Jurkat; type: cell-based, human
Procedure: FIG. 8: CAMVE potentiates apoptosis induced by TNF or chemotherapeutic agents. A1. Jurkat cells were incubated at 37° C. with TNF, in the presence and absence of 10 μM of CAMVE for 72 h and the viable cells were assayed using MTT reagent. The results are shown as the mean±S.D. from triplicate culture. A2. Jurkat cells (1×10^6 cells/ml) were pretreated with CAMVE for 3 h as indicated and incubated with TNF for 24 hrs, and PARP cleavage was determined by FACS analysis as described in the “Materials and Methods”. M2 gated population represents the percentage apoptotic population B. SA-LPS/Jkt cells pretreated with 10 μM of CAMVE for 3 h, were treated with 1 μM of cis-plastin, doxorubicin, taxol or vincristine for 72 h. The cytotoxicity was then assayed by MTT method. Results are shown as the mean±S.D. from triplicate samples.
FIG. 11: Dose response for compound 27 induced loss of cell viability and cell proliferation in Jurkat cell line. […] Error bars indicate±S.D.
Cytotoxicity was assayed by the modified tetrazolium salt 3-(4,5-dimethylthiazol-2-yl)-2,5-diphenyltetrazolium bromide (MTT) assay as described by Plumb, J A et al. (Cancer Res. 1989 Aug. 15; 49(16):4435-4440). […]

Question: Which results are given for `COC(=O)c1ccc(OC(=O)/C=C/c2ccc(O)c(O)c2)c(OC)c1` [compound 1, Methyl 4-{[(2E)-3-(3,4-dihydroxyphenyl)prop-2-enoyl]oxy}-3-methoxybenzoate]?
Answer: cell cycle distribution (Jurkat cells [1]; 5 μM, 24 h): significant increase of cells in the G1 and compensatory decrease in the S phase; viability at 10 µM (TNFα): 73.2 ± 1.77%; CONCENTRATION OF NITRITE μM ± SD (RAW 264.7 cells): 1.849 ± 0.214 µM; LPS induced nitrite production (RAW 264.7 cells; Raw 264.7 pretreated 1 h, LPS 250 ng/ml 24 h): inhibited by CAMVE treatment in a dose-dependent manner; cytotoxicity induced by chemotherapeutic agents (MTT) (Jurkat cells [2]; SA-LPS (100 ng/ml) activated Jurkat, 10 μM CAMVE 3 h, then 1 μM cis-platin, doxorubicin, taxol or vincristine 72 h): significantly enhanced by CAMVE pretreatment

Question: Which results are given for `COc1cc([C@@H]2Oc3c(OC)cc(/C=C/C(=O)O)cc3[C@H]2C(=O)O)ccc1O` [compound 27, 5-[(E)-2-carboxyvinyl]-2β-(4-hydroxy-3-methoxyphenyl)-7-methoxy-2,3-dihydro-1-benzofuran-3α-carboxylic acid]?
Answer: G2/M population (Jurkat cells [1]; 50 nM (data not shown)): no significant increase in G2/M population; cell cycle distribution with time (Jurkat cells [1]; 48 and 72 h): significant decrease in the G2/M population; cell cycle distribution with time (Jurkat cells [1]; 24 h): accumulated in G2/M after 24 h with a significant decrease in the G1 and S phase populations; increase of cells in the G2/M phase (Jurkat cells [1]; 100 nM, 24 h): ~50%; G2/M and sub G1 population (Jurkat cells [1]; concentration higher than 100 nM): further increase in both G2/M and sub G1 population; viability at 10 µM (TNFα): 46.5 ± 1.02%; CONCENTRATION OF NITRITE μM ± SD (RAW 264.7 cells): 5.027 ± 0.200 µM; GI50 (Jurkat cells [2]; Homo sapiens, Jurkat, MTT, 24 h and 48 h, read-out: GI50 (concentration causing 50% growth inhibition)): ~100 nM
